Results reported in US20060083680A1, “Diphenyl ether derivatives and their use for imaging serotonin transporters” (The Trustees of the University of Pennsylvania, priority 2004, published 2006).
Several values for one entry are separate records, joined by “and”; a condition that tells them apart may be missing. Equal values may be shown once.

Columns and labels:
[1] = Biodistribution in rats after iv injection (organs); format: in vivo; settings: iv, 24 hrs
Protocol: Biodistribution in rats: Three rats per group were used for each biodistribution study. While under ether anesthesia, 0.2 mL of a saline solution containing 10 μCi of radioactive tracer was injected into the femoral vein. The rats were sacrificed at the time indicated by cardiac excision while under ether anesthesia. Organs of interest were removed and weighed, and the radioactivity was counted. The percent dose per organ was calculated by a comparison of the tissue counts to counts of 1% of the initial dose (100 times diluted aliquots of the injected material) measured at the same time.

[2] = biological target: T1, serotonin transporters (Rattus norvegicus, UniProt P31652); test: Regional brain distribution and specific binding ratio in rats; format: in vivo; settings: for Ratio of (Region-Cerebellum)/Cerebellum, CX / Ratio of (Region-Cerebellum)/Cerebellum, HP / Ratio of (Region-Cerebellum)/Cerebellum, HY / Ratio of (Region-Cerebellum)/Cerebellum, ST / Regional brain distribution CB (cerebellum) / Regional brain distribution CX (cortex) / Regional brain distribution HP (hippocampus) / Regional brain distribution HY (hypothalamus) / Regional brain distribution ST (striatum): iv
T1 construct: from tissue; host or cells: rat brain in vivo (hypothalamus, cortex, striatum, hippocampus, cerebellum); ex vivo brain sections
T1 sequence (P31652 whole entry): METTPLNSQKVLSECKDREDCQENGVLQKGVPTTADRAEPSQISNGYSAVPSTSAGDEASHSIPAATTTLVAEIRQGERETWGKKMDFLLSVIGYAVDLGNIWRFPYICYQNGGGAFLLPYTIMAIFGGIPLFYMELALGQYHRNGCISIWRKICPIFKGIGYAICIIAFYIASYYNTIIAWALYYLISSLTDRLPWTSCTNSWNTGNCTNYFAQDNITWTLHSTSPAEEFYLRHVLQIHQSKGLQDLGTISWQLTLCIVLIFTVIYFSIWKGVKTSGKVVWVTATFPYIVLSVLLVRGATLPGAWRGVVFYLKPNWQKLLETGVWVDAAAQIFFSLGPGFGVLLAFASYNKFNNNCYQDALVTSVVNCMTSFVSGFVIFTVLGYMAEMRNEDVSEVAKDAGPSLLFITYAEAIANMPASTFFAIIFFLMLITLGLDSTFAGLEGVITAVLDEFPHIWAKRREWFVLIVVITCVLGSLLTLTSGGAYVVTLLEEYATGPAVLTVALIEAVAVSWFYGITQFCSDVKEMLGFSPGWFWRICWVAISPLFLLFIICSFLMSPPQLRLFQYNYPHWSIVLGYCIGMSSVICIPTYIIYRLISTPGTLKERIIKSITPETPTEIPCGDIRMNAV
Protocol: Regional brain distribution in rats was measured after an i.v. injection of the radioactive tracer. Samples from different brain regions: cortex (frontal plus occipital), striatum, hippocampus, cerebellum and hypothalamus were dissected, weighed and counted. The percentage dose/g of each sample was calculated by comparing sample counts with the counts of the diluted initial dose described above. The specific binding ratio in each region was obtained by dividing the % dose/gram values between region by that in the cerebellum ([region-cerebellum/cerebellum]). The cerebellum region containing little or no serotonin transporters was used as the background region.

[3] = Stability of the radioactive material; settings: refrigerator

CN(C)Cc1ccccc1Oc1ccc([125I])cc1N [[^125I]4, [^125I][^123I]2-(2-(Dimethylaminomethyl)phenoxy)-5-iodophenylamine]
Biodistribution Liver [1]: 1.83 ± 0.07 % dose/organ | Biodistribution Lung [1]: 0.04 ± 0.00 % dose/organ | Biodistribution Muscle [1]: 1.13 ± 0.13 % dose/organ | Biodistribution Skin [1]: 4.02 ± 0.26 % dose/organ | Biodistribution Spleen [1]: 0.05 ± 0.01 % dose/organ | Biodistribution Thyroid [1]: 4.61 ± 1.21 % dose/organ | hypothalamus uptake compared to other radioiodinated compounds ([2]; 60-240 min post i.v. injection): highest uptake in hypothalamus | Ratio of (Region-Cerebellum)/Cerebellum, CX ([2]; 2 min): 0.56 ± 0.55 | Ratio of (Region-Cerebellum)/Cerebellum, HP ([2]; 2 min): 0.13 ± 0.22 | Ratio of (Region-Cerebellum)/Cerebellum, HY ([2]; 2 min): 0.24 ± 0.17 | Ratio of (Region-Cerebellum)/Cerebellum, ST ([2]; 2 min): 0.01 ± 0.27 | Regional brain distribution CB (cerebellum) ([2]; 2 min): 0.79 ± 0.21 % dose/g | Regional brain distribution CX (cortex) ([2]; 2 min): 1.16 ± 0.14 % dose/g | Regional brain distribution HP (hippocampus) ([2]; 2 min): 0.86 ± 0.07 % dose/g | Regional brain distribution HY (hypothalamus) ([2]; 2 min): 0.96 ± 0.15 % dose/g | Regional brain distribution ST (striatum) ([2]; 2 min): 0.77 ± 0.04 % dose/g | Ratio of (Region-Cerebellum)/Cerebellum, CX ([2]; 30 min): 0.96 ± 0.14 | Ratio of (Region-Cerebellum)/Cerebellum, HP ([2]; 30 min): 0.68 ± 0.22 | Ratio of (Region-Cerebellum)/Cerebellum, HY ([2]; 30 min): 1.06 ± 0.22 | Ratio of (Region-Cerebellum)/Cerebellum, ST ([2]; 30 min): 0.83 ± 0.23 | Regional brain distribution CB (cerebellum) ([2]; 30 min): 0.64 ± 0.09 % dose/g | Regional brain distribution CX (cortex) ([2]; 30 min): 1.25 ± 0.13 % dose/g | Regional brain distribution HP (hippocampus) ([2]; 30 min): 1.06 ± 0.12 % dose/g | Regional brain distribution HY (hypothalamus) ([2]; 30 min): 1.30 ± 0.06 % dose/g | Regional brain distribution ST (striatum) ([2]; 30 min): 1.16 ± 0.10 % dose/g | Ratio of (Region-Cerebellum)/Cerebellum, CX ([2]; 60 min): 1.35 ± 0.07 | Ratio of (Region-Cerebellum)/Cerebellum, HP ([2]; 60 min): 1.30 ± 0.05 | Ratio of (Region-Cerebellum)/Cerebellum, HY ([2]; 60 min): 1.92 and 1.92 ± 0.20 | Ratio of (Region-Cerebellum)/Cerebellum, ST ([2]; 60 min): 1.51 ± 0.12 | Regional brain distribution CB (cerebellum) ([2]; 60 min): 0.41 ± 0.03 % dose/g | Regional brain distribution CX (cortex) ([2]; 60 min): 0.95 ± 0.07 % dose/g | Regional brain distribution HP (hippocampus) ([2]; 60 min): 0.94 ± 0.08 % dose/g | Regional brain distribution HY (hypothalamus) ([2]; 60 min): 1.18 ± 0.08 % dose/g | Regional brain distribution ST (striatum) ([2]; 60 min): 1.02 ± 0.11 % dose/g | Ratio of (Region-Cerebellum)/Cerebellum, CX ([2]; 120 min): 1.48 ± 0.13 | Ratio of (Region-Cerebellum)/Cerebellum, HP ([2]; 120 min): 2.19 ± 0.07 | Ratio of (Region-Cerebellum)/Cerebellum, HY ([2]; 120 min): 3.49 and 3.49 ± 0.09 | Ratio of (Region-Cerebellum)/Cerebellum, ST ([2]; 120 min): 2.53 ± 0.17 | Regional brain distribution CB (cerebellum) ([2]; 120 min): 0.21 ± 0.01 % dose/g | Regional brain distribution CX (cortex) ([2]; 120 min): 0.51 ± 0.04 % dose/g | Regional brain distribution HP (hippocampus) ([2]; 120 min): 0.65 ± 0.04 % dose/g | Regional brain distribution HY (hypothalamus) ([2]; 120 min): 0.92 ± 0.06 % dose/g | Regional brain distribution ST (striatum) ([2]; 120 min): 0.72 ± 0.01 % dose/g | Ratio of (Region-Cerebellum)/Cerebellum, CX ([2]; 240 min): 1.12 ± 0.17 | Ratio of (Region-Cerebellum)/Cerebellum, HP ([2]; 240 min): 2.47 ± 0.28 | Ratio of (Region-Cerebellum)/Cerebellum, HY ([2]; 240 min): 4.49 and 4.3 and 4.49 ± 0.12 | Ratio of (Region-Cerebellum)/Cerebellum, ST ([2]; 240 min): 3.11 ± 0.35 | Regional brain distribution CB (cerebellum) ([2]; 240 min): 0.06 ± 0.00 % dose/g | Regional brain distribution CX (cortex) ([2]; 240 min): 0.12 ± 0.01 % dose/g | Regional brain distribution HP (hippocampus) ([2]; 240 min): 0.20 ± 0.02 % dose/g | Regional brain distribution HY (hypothalamus) ([2]; 240 min): 0.32 ± 0.03 % dose/g | Regional brain distribution ST (striatum) ([2]; 240 min): 0.24 ± 0.02 % dose/g | Ratio of (Region-Cerebellum)/Cerebellum, CX ([2]; 6 hrs): 0.58 ± 0.09 | Ratio of (Region-Cerebellum)/Cerebellum, HP ([2]; 6 hrs): 1.21 ± 0.11 | Ratio of (Region-Cerebellum)/Cerebellum, HY ([2]; 6 hrs): 2.64 and 2.64 ± 0.54 | Ratio of (Region-Cerebellum)/Cerebellum, ST ([2]; 6 hrs): 1.56 ± 0.41 | Regional brain distribution CB (cerebellum) ([2]; 6 hrs): 0.027 ± 0.002 % dose/g | Regional brain distribution CX (cortex) ([2]; 6 hrs): 0.042 ± 0.002 % dose/g | Regional brain distribution HP (hippocampus) ([2]; 6 hrs): 0.059 ± 0.005 % dose/g | Regional brain distribution HY (hypothalamus) ([2]; 6 hrs): 0.097 ± 0.015 % dose/g | Regional brain distribution ST (striatum) ([2]; 6 hrs): 0.068 ± 0.005 % dose/g | Ratio of (Region-Cerebellum)/Cerebellum, CX ([2]; 11 hrs): 0.00 ± 0.16 | Ratio of (Region-Cerebellum)/Cerebellum, HP ([2]; 11 hrs): 0.09 ± 0.08 | Ratio of (Region-Cerebellum)/Cerebellum, HY ([2]; 11 hrs): 0.44 ± 0.19 | Ratio of (Region-Cerebellum)/Cerebellum, ST ([2]; 11 hrs): 0.14 ± 0.13 | Regional brain distribution CB (cerebellum) ([2]; 11 hrs): 0.011 ± 0.0013 % dose/g | Regional brain distribution CX (cortex) ([2]; 11 hrs): 0.010 ± 0.0010 % dose/g | Regional brain distribution HP (hippocampus) ([2]; 11 hrs): 0.012 ± 0.0021 % dose/g | Regional brain distribution HY (hypothalamus) ([2]; 11 hrs): 0.016 ± 0.0025 % dose/g | Regional brain distribution ST (striatum) ([2]; 11 hrs): 0.012 ± 0.0000 % dose/g | Ratio of (Region-Cerebellum)/Cerebellum, HY ([2]; 24 hrs): 0.23 ± 0.15 | Regional brain distribution CB (cerebellum) ([2]; 24 hrs): 0.0049 ± 0.0009 % dose/g | Regional brain distribution CX (cortex) ([2]; 24 hrs): 0.0040 ± 0.0007 % dose/g | Regional brain distribution HP (hippocampus) ([2]; 24 hrs): 0.0040 ± 0.0005 % dose/g | Regional brain distribution HY (hypothalamus) ([2]; 24 hrs): 0.0060 ± 0.0010 % dose/g | Regional brain distribution ST (striatum) ([2]; 24 hrs): 0.0039 ± 0.0004 % dose/g | stability in a refrigerator [3]: stable in a refrigerator for at least three weeks
